Key:
HCT-15 colon carcinoma = assay: Inhibition of cellular proliferation in tumor cell lines (CellTiter Glo), HCT-15; format: cell-based; settings: Homo sapiens; HCT-15, 72 hours of continuous compound exposure; read-out: Cell Base Activity GI50 HCT-15
Protocol: (§1) Cells are plated in 96-well plates at densities of about 500 cells per well of a 96-well plate and are allowed to grow for 24 hours. The cells are then treated with various concentrations of compounds for 72 hours. Then, 100 μl of CellTiter Glo is added. CellTiter Glo is a tetrazolium-based assay using the reagent 3-(4,5-dimethylthiazol-2-yl) 5-(3-carboxymethoxyphenyl)-2-(4-sulfophenyl)-2H-tetrazolium (MTS) (U.S. Pat. No. 5,185,450) (see Promega product catalog #G3580, CellTiter 96 Aqueous One Solution Cell Proliferation Assay). The cells are then incubated in the dark for 30 minutes. The amount of luminescence is determined for each well using a Walloc Trilux plate reader, which correlates with the number of cells per well. The number of viable cells in the wells that receive only DMSO (0.5%) serve as an indication of 0% inhibition, while wells without cells serve as 100% inhibition of cell growth. The compound concentration that results in a 50% growth inhibition (GI50) is determined graphically from sigmoidal dose-response curves of log-transformed dose values versus cell counts (percent of control) at 72 hours of continuous compound exposure.
(§2) The cell lines used are listed below.
(§3) The cell proliferation assay is performed as described above.

HCT-116 colon carcinoma = assay: Inhibition of cellular proliferation in tumor cell lines (CellTiter Glo), HCT-116; format: cell-based; settings: Homo sapiens; HCT-116, 72 hours of continuous compound exposure; read-out: Cell Base Activity GI50 HCT-116
Protocol: as §1, §2, §3

[1] = target: T1, motor domain of human KSP (Eg 5, KNSL1) (Homo sapiens, UniProt P52732); assay: Assay for determining KSP activity (microtubule-stimulated ATPase, Biomol Green); settings: KSP motor domain 45 nM, microtubules 35 μg/mL, 1 hour at RT; read-out: Biochemical Activity IC50
T1 construct: KSP motor protein (i.e., the KSP motor domain); made in house
T1 sequence (P52732 18-359 limits assumed): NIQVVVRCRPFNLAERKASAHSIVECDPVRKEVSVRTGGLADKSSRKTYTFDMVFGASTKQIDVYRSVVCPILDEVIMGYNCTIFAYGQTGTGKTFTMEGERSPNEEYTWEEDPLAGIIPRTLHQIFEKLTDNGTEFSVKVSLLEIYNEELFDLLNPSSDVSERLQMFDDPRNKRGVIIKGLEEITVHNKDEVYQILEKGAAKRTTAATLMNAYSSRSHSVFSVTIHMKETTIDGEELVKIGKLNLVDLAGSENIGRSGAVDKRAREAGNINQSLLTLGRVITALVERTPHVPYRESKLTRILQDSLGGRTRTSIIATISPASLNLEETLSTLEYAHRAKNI
Source text: This example provides a representative in vitro assay for determining KSP activity in vitro. Purified microtubules obtained from bovine brain were purchased from Cytoskeleton Inc. (Denver, Colo., USA). The motor domain of human KSP (Eg 5, KNSL1) was cloned, expressed, and purified to greater than 95% homogeneity. Biomol Green was purchased from Affinity Research Products Ltd. (Matford Court, Exeter, Devon, United Kingdom). Microtubules and KSP motor protein (i.e., the KSP motor domain) were diluted in assay buffer (20 mM Tris-HCl (pH 7.5), 1 mM MgCl2, 10 mM DTT and 0.25 mg/mL BSA) to a final concentration of 35 μg/mL microtubules and 45 nM KSP. The microtubule/KSP mixture was then pre-incubated at 37° C. for 10 min to promote the binding of KSP to microtubules.
To each well of the testing plate (384-well plate) containing 1.25 μL of inhibitor or test compound in DMSO (or DMSO only in the case of controls) were added 25 μL of ATP solution (ATP diluted to a concentration of 300 μM in assay buffer) and 25 μL of the above-described microtubule/KSP solution. The plates were incubated at RT for 1 hour. Following incubation, 65 μL of Biomol Green (a malachite green-based dye that detects the release of inorganic phosphate) was added to each well. The plates were incubated for an additional 5-10 minutes then the absorbance at 630 nm was determined using a Victor II plate reader. The amount of absorbance at 630 nm corresponded to the amount of KSP activity in the samples. The IC50 of each inhibitor or test compound was then determined based on the decrease in absorbance at 630 nm at each concentration, via nonlinear regression using either XLFit for Excel or Prism data analysis software by GraphPad Software Inc.

[2] = system: KB8.5 (KB85 - p-glycoprotein associated multi-drug resistant cell line); assay: Inhibition of cellular proliferation in tumor cell lines (CellTiter Glo), KB8.5; format: cell-based; settings: KB8.5, 72 hours of continuous compound exposure; read-out: Cell Base Activity GI50 KB8.5
Protocol: as §1, §2, §3

parental cell line = assay: Inhibition of cellular proliferation in tumor cell lines (CellTiter Glo), KB3.1; format: cell-based; settings: Homo sapiens, KB 3-1; KB3.1, 72 hours of continuous compound exposure; read-out: Cell Base Activity GI50 KB3.1
Protocol: as §1, §2, §3

Row | SMILES | GI50 (HCT-15 colon carcinoma) | GI50 (HCT-116 colon carcinoma) | IC50 [1] | GI50 [2] | GI50 (parental cell line)
1 | C[C@@H]1O[C@H](CN)CN([C@@H](c2nc(-c3cccc(F)c3)cn2Cc2ccccc2)C(C)(C)C)C1=O [Compound 14, (2S,6R)-6-(aminomethyl)-4-{(1R)-1-[1-benzyl-4-(3-fluorophenyl)-1H-imidazol-2-yl]-2,2-dimethylpropyl}-2-methylmorpholin-3-one] | > 1000 nM | > 1000 nM | > 1000 nM | > 1000 nM | > 1000 nM
2 | CC(C)[C@H](c1nc(-c2cccc(Cl)c2)cn1Cc1ccccc1)N1C[C@H](CN)OCC1=O [Compound 9, (6S)-6-(aminomethyl)-4-{(1R)-1-[1-benzyl-4-(3-chlorophenyl)-1H-imidazol-2-yl]-2-methylpropyl}morpholin-3-one] | 100 to 1000 nM | 100 to 1000 nM | > 1000 nM | > 1000 nM | 100 to 1000 nM
3 | CC(C)(C)[C@H](c1nc(-c2ccccc2)cn1Cc1ccccc1)N1C[C@@H](CN)NC(=O)C1=O [Compound 16, (5R)-5-(aminomethyl)-1-[(1R)-1-(1-benzyl-4-phenyl-1H-imidazol-2-yl)-2,2-dimethylpropyl]piperazine-2,3-dione] | > 1000 nM | 100 to 1000 nM | ≤ 100 nM | > 1000 nM | 100 to 1000 nM
4 | CC(C)[C@H](c1nc(-c2cccc(Cl)c2)cn1Cc1ccccc1)N1CC(CN)OC1=O (stereo partly drawn) [Compound 3, 5-(aminomethyl)-3-{(1R)-1-[1-benzyl-4-(3-chlorophenyl)-1H-imidazol-2-yl]-2-methylpropyl}-1,3-oxazolidin-2-one] | > 1000 nM | > 1000 nM | 100 to 1000 nM | > 1000 nM | > 1000 nM
5 | CC(C)(C)[C@H](c1nc(-c2ccccc2)cn1Cc1ccccc1)N1C[C@@H](CN)OCC1=O [Compound 7, (6R)-6-(aminomethyl)-4-[(1R)-1-(1-benzyl-4-phenyl-1H-imidazol-2-yl)-2,2-dimethylpropyl]morpholin-3-one] | 100 to 1000 nM | 100 to 1000 nM | ≤ 100 nM | 100 to 1000 nM | 100 to 1000 nM
6 | C[C@H]1O[C@H](CN)CN([C@@H](c2nc(-c3cccc(F)c3)cn2Cc2ccccc2)C(C)(C)C)C1=O [Compound 15, (2R,6R)-6-(aminomethyl)-4-{(1R)-1-[1-benzyl-4-(3-fluorophenyl)-1H-imidazol-2-yl]-2,2-dimethylpropyl}-2-methylmorpholin-3-one] | > 1000 nM | > 1000 nM | 100 to 1000 nM | > 1000 nM | > 1000 nM

More lines, main results first:

Row | GI50 (HCT-15 colon carcinoma) | GI50 (HCT-116 colon carcinoma) | IC50 [1] | GI50 [2] | SMILES | GI50 (parental cell line)
7 | > 1000 nM | > 1000 nM | ≤ 100 nM | > 1000 nM | CC(C)(C)[C@H](c1nc(-c2ccccc2)cn1Cc1ccccc1)N1C[C@H](CN)NC(=O)C1=O [Compound 17, (5S)-5-(aminomethyl)-1-[(1R)-1-(1-benzyl-4-phenyl-1H-imidazol-2-yl)-2,2-dimethylpropyl]piperazine-2,3-dione] | > 1000 nM
8 | > 1000 nM | 100 to 1000 nM | 100 to 1000 nM | 100 to 1000 nM | CC(C)(C)[C@H](c1nc(-c2ccccc2)cn1Cc1ccccc1)N1C[C@@H](CN)OCCC1=O [Compound 23, (2R)-2-(aminomethyl)-4-[(1R)-1-(1-benzyl-4-phenyl-1H-imidazol-2-yl)-2,2-dimethylpropyl]-1,4-oxazepan-5-one] | > 1000 nM
9 | 100 to 1000 nM | 100 to 1000 nM | ≤ 100 nM | 100 to 1000 nM | CC(C)(C)[C@H](c1nc(-c2cccc(F)c2)cn1Cc1cccc(F)c1)N1C[C@H](CN)COCC1=O [Compound 29, (6S)-6-(aminomethyl)-4-{(1R)-1-[1-(3-fluorobenzyl)-4-(3-fluorophenyl)-1H-imidazol-2-yl]-2,2-dimethylpropyl}-1,4-oxazepan-3-one] | 100 to 1000 nM
10 | 100 to 1000 nM | 100 to 1000 nM | ≤ 100 nM | > 1000 nM | CN1C(=O)C(=O)N([C@@H](c2nc(-c3ccccc3)cn2Cc2ccccc2)C(C)(C)C)C[C@H]1CN [Compound 18, (5R)-5-(aminomethyl)-1-[(1R)-1-(1-benzyl-4-phenyl-1H-imidazol-2-yl)-2,2-dimethylpropyl]-4-methylpiperazine-2,3-dione] | 100 to 1000 nM
11 | 100 to 1000 nM | ≤ 100 nM | ≤ 100 nM | 100 to 1000 nM | CC(C)(C)[C@H](c1nc(-c2ccccc2)cn1Cc1ccccc1)N1C[C@@H](CN)COCC1=O [Compound 25, (6R)-6-(aminomethyl)-4-[(1R)-1-(1-benzyl-4-phenyl-1H-imidazol-2-yl)-2,2-dimethylpropyl]-1,4-oxazepan-3-one] | ≤ 100 nM

Source: US7820646B2, “Cyclized derivatives as Eg-5 inhibitors” (Novartis Vaccines and Diagnostics, Inc., priority 2007, dated 2010)
